Values after ≈ are worked out from the molar mass of the structure shown.
How the values were obtained:
[1] = 300 K, cited from earlier work
[2] = GA Solubility Test (TGA mass balance of saturated solution); format: physicochemical; settings: 4° C.
Description: GA Solubility Test: Due to the lactonization potential of glucaric acid, the solubility was estimated using thermogravimetric analysis (TGA) based on the mass balance of the saturated solution. A sample of acetone-washed GA was dissolved in 3 mL of the IPA/water mixture (7:1 by mass) to excess, sonicated, and allowed to settle overnight at each of three temperatures: −20° C., 4° C. and 22° C. Next, the solutions were filtered at a pore size of 0.45 μm. These saturated solutions were dropped into an aluminum Differential Scanning calorimetry (DSC) pan and placed on dry ice to partially freeze them and slow the evaporation rate so that the mass of the total solution could be measured by TGA. The partially frozen solution was heated from room temperature at 5° C. per minute to 110° C. and held isothermally for 15 minutes to allow the solvent to evaporate. In this way, the mass of the remaining species in the pan was determined to μg precision. This was taken to be the total mass of GA that had dissolved in the solvent, including possible lactone products, in a catch-all method.

[3] = Enthalpy and entropy of dissolution from Van't Hoff plot of solubility versus temperature; format: physicochemical
Description: The enthalpy and entropy of dissolution of KGA and GA. The enthalpy and entropy of dissolution are calculated here using the solubility of KGA and GA in solutions of identical solvent composition as a function of temperature. The solubility of KGA and GA and related thermodynamic properties (enthalpy and entropy of dissolution) are important because they can be used for building a crystallization model and optimizing crystallization conditions in a large scale process. Accordingly, using the solubility data obtained for each compound (FIG. 2B), the enthalpy and entropy of dissolution of both KGA and GA were calculated using the Van't Hoff equation.
In Equation 1, x is the mole fraction of a compound in the solvent, Δ_dis H and Δ_dis S are the enthalpy and the entropy of dissolution, T is the absolute temperature, and R represents the ideal gas constant. The solubility of KGA or GA was measured by varying temperature to plot ln x versus 1/T, and the resulting values of enthalpy and entropy of dissolution was determined from the slope and the intercept, respectively.
The antisolvent loading in each mixture is the same as used in each purification process. Table 4 provides the dissolution enthalpy and entropy of both KGA and GA calculated from Eq. (1) using the linear fits in FIG. 5. […] The […] of GA solubility data yields a negative entropy of dissolution for GA. This could be because dissolved GA is in equilibrium with lactones, and they form dimers or organized structures that are represented by this value.

[4] = reported pKa value of glucaric acid; cited from earlier work
physchem = settings: pH 1.5, aqueous buffer, thermodynamic from solid
Description: (§1) KGA Solubility Test: KGA solubility was quantified by adding excess KGA to UHP water and adjusting pH between 1-6 by addition of 2 M HCl or 2 M KOH with stirring. The samples were mixed, allowed to sit overnight, and then the pH was measured again. The samples were filtered, diluted with a pH 7 phosphate buffer to reduce lactonization and the KGA concentration was quantified by LC. Similarly, KGA solubility in a 25.2 wt. % acetone solution was measured by preparing KGA-saturated solution samples at −20° C., 22° C. and 40° C. and quantified by using the liquid chromatography (LC) method.
(§2) 15 μl samples were injected into a Phenomenex Luna C18(2) 5 μm, 150 mm×4.6 mm column at a temperature of 35° C. An isocratic mobile phase of 20 mM potassium phosphate at pH 7 was pumped at a flow rate of 0.65 mL/min for 7 min.

[5] = KGA Solubility Test (glucarate solubility at various pH in water and acetone/water, quantified by LC); settings: for solubility: 22 °C, thermodynamic from solid
Description: as §1, §2

[6] = Reported pKa values of glucaric acid and molar speciation calculated from them; format: physicochemical; settings: at pH 3.6, calculated from reported pKa values
Source text: The inset photo is the KGA precipitate from broth pH adjusted to 3.5 (left) and broth pH adjusted to 3.5 with acetone 25 wt. % acetone addition (right).

O=C(O)[C@@H](O)[C@H]1OC(=O)[C@H](O)[C@H]1O [1,4-lactone, D-glucaro-1,4-lactone]
Rate constant k1 ([1]; 1,4-lactone → GA): 7.04e-05 s⁻¹

O=C1O[C@H]2[C@H](OC(=O)[C@@H]2O)[C@@H]1O [1,4:6,3-dilactone, D-glucaro-1,4:6,3-dilactone]
Rate constant k8 ([1]; 1,4:6,3-dilactone → 6,3-lactone (so in the source)): 5.01e-05 s⁻¹ | Rate constant k6 ([1]; 1,4:6,3-dilactone → 6,3-lactone): 0.00197 s⁻¹

O=C1O[C@H]([C@@H](O)C(=O)O)[C@H](O)[C@@H]1O [6,3-lactone, D-glucaro-6,3-lactone]
Rate constant k7 ([1]; 6,3-lactone → 1,4:6,3-dilactone (so in the source)): 0.000664 s⁻¹ | Rate constant k5 ([1]; 6,3-lactone → 1,4:6,3-dilactone): 0.000174 s⁻¹ | Rate constant k4 ([1]; 6,3-lactone → GA): 8.7e-05 s⁻¹

O=C(O)[C@@H](O)[C@@H](O)[C@H](O)[C@@H](O)C(=O)O [GA, glucaric acid]
solubility in IPA-water lower than that in ACN-water [2]: 53% | solubility in IPA-water lower than that in water [2]: 77% | AdisH ([3]; solvent Isopropanol 87.5 wt. %): 0.88 kcal/mol | AdisS ([3]; solvent Isopropanol 87.5 wt. %): −40.78 J/mol/K | higher solubility than KGA (pH 1.5): 56% | solubility increase as pH is decreased (pH 3.1): about 55% | pKa1 [4]: 3.17 | pKa2 [4]: 3.96 | Rate constant k2 ([1]; GA → 1,4-lactone): 4.84e-05 s⁻¹ | Rate constant k3 ([1]; GA → 6,3-lactone): 5.52e-05 s⁻¹ | solubility (physchem): 26 mg/mL (≈ 124 mM)

O=C([O-])[C@@H](O)[C@@H](O)[C@H](O)[C@@H](O)C(=O)[O-].[K+].[K+] [K2GA, dipotassium glucarate]
solubility ([5]; aqueous buffer): > 120 mg/mL

O=C(O)[C@@H](O)[C@@H](O)[C@H](O)[C@@H](O)C(=O)[O-].[K+] [KGA, monopotassium glucarate]
maximum concentration (molar fraction) of KGA form [6]: 55 mol % | AdisH ([3]; solvent Acetone 24.7 wt. %): 7.639 kcal/mol | AdisS ([3]; solvent Acetone 24.7 wt. %): 35.70 J/mol/K | solubility ([5]; pH 3.5, aqueous buffer): ~16 mg/mL | solubility ([5]; pH 3.5, aqueous with cosolvent or surfactant or cyclodextrin): ~8.1 mg/mL | additional reduction of solubility by adding acetone ([5]; acetone 25 wt. %, pH 3.5): 50% | solubility in broth ([5]; fermentation broth, pH 3.5, acetone (30 vol %)): almost zero | saturation limit in high purity water ([5]; high purity water, no pH adjustment): 0.06 M | solubility relative to the solubility of K2GA at pH 5.8 ([5]; pH 3.5): 13.5 mol %
